Results as given in patent publication US20230184743A1, “SCREENING METHODS TO IDENTIFY SMALL MOLECULE COMPOUNDS THAT PROMOTE OR INHIBIT THE GROWTH OF CIRCULATING TUMOR CELLS, AND USES THEREOF” (University of Southern California, priority 2020, published 2023).
“Also recorded” adds a separate entry of the source.

Assays:
single BRx68 cells = experiment: Single CTC proliferation over 24 days (AUC), BRx68 line; type: cell-based, human; conditions: two batches, 200 μM-300 μM NAC, 24 days
Description: (§1) Cell culture. CTC lines were previously derived from metastatic breast cancer patients. CTC lines were cultured in ultra-low attachment plates with RPMI 1640 medium, supplemented with EGF (20 ng/mL), bFGF (20 ng/mL), 1×B27 and 1× antibiotic/antimycotic, in 4% 02 and 5% CO2. Single CTCs were cultured in GravityTRAP™ ULA 96 well Plates (PerkinElmer). Wells on the edges of the plates were not used to avoid influence from evaporation. Media with fresh compounds were exchanged every 3 days by inserting pipet tips onto the platform of the wells to prevent accidentally aspirating suspended CTCs at the bottom. CTC numbers were counted manually under an inverted microscope every 6 days.
FACS sorting. […]
(§2) Statistical analysis. […] AUC was calculated for each well in each batch, by plotting days in the x-axis and the corresponding number of cells in the y-axis, then drawing a line to connect the number of cells from the starting count day to the next count day until the end day, and finally calculating the area under this line as the sum of areas of trapezoids. […] Statistical tests were performed using R. For absolute number of cells quantification, total number of cells at end of experiment in each well in each batch was compared between treated cells and untreated control and significance was analyzed with Student t test. […]

[1] = test system: GFP-Luciferase tagged BRx68 single clones; experiment: Xenograft assay of single cell clones generated with or without NAC; type: in vivo; conditions: clones generated with 300 μM NAC for 24 days vs control clones; mammary fat pad of female NSG mice
Description: Single CTC clones. NAC clones were generated by treating single CTCs with 300 μM NAC media for 24 days before switching to regular CTC media. Control single clone lines were established in the same batch using regular CTC media.
Xenograft assay and Hematoxyline & Eosin staining. Six-week old female NSG mice (Jackson Laboratory) were anesthetized with isoflurane and 20,000 GFP/luc-positive single clone cells in 100 μL of 1:1 PBS and Corning® Matrigel® Matrix (phenol-red free) were injected into the fourth mammary fat pad. To evaluate the growth of primary tumors, mice were intraperitoneally injected with 150 μL of d-Luciferin substrate at 30 mg/mL (Sid Labs), and imaged within 15 minutes. Signals from luciferase-tagged cells were monitored at day 0 after injection and weekly by in vivo imaging using IVIS Lumina II (Perkin Elmer) for 5 weeks. Mice were sacrificed after 8 weeks, and their organs were dissected and imaged. Primary tumors and organs were collected and fixed with 10% formalin overnight and sectioned for 5 μm thickness. H&E staining was performed using Varistain Gemini ES Automated Slide Stainer in USC's Histology Laboratory (HIST). Images were taken with a 20× objective in Keyence (BZ-II Analyser, Keyence).
Validation on spiked-in CTCs. To mimic the CTC isolation procedure, spiked-in experiments were performed with 3 CTC lines (BRx42, BRx50 and BRx68) into healthy donors' blood. […]

[2] = test system: single CTCs from 4 patient-derived CTC lines (BRx07, BRx42, BRx50, and BRx68); experiment: Validation of candidate compounds: single CTC proliferation over 24 days (AUC); type: cell-based, human
Description: as §1
FACS sorting. Cells were pelleted and resuspended into single cell suspension in 1% BSA in PBS buffer with 7-AAD. Live single CTCs were sorted directly into 96-well GravityTRAP™ ULA Plates using a MoFlo cell sorter (Beckman Coulter). An inverted microscope was used to manually confirm that there was 1 CTC per well, 1 hour after sorting.
Compounds screening. Compounds were from the StemSelect library obtained from the Choi Family Therapeutic Screening Facility at the Eli and Edythe Broad CIRM Center for Regenerative Medicine and Stem Cell Research at USC. Each compound was given a code to ensure unbiased assessment and blinded to the investigators. Compound information is listed in Appendix, at Table 1 of US Provisional Application No. U.S. 62/990,445, incorporated herein by reference). In the first-round screening, compounds were used with […] concentration. Stocks of compounds (10 mM concentration in DMSO) were stored in aliquots at −80° C. All compounds were thawed and refrozen for a maximum of 2 times. In the second-round validation, fresh compounds were dissolved in DMSO (Millipore sigma), and aliquots were stored at −20° C. and used only once without refreezing. Only wells started from single cells on day 0 after sorting were used in the screening experiment. Data collection was done in batches.
as §2, with “test. For other experiments, data were analyzed with Student t test, and represent the means±SEM of at least triplicate samples or averages ±SD of independent analyses, as indicated.” for “test.”

Compound: CC(=O)N[C@@H](CS)C(=O)O [NAC, N-acetyl-L-cysteine]
- single CTC proliferation at various NAC concentrations (single BRx68 cells): most significant effect in promoting single CTC proliferation
- tumorigenicity of single cell clones (tumor growth kinetics and histology) [1]: dose not change the tumorigenicity; also recorded: did not significantly affect
- additional growth advantages from treatment once a single cell colony reaches a critical size ([2]; after initial expansion from single CTCs): does not seem to confer additional growth advantages
- single CTC expansion compared to controls ([2]; all 4 CTC lines, NAC 300 μM, P1C2 1 μM or 0.5 μM, 24 days): promote growth of single CTCs; also recorded: statistically significant improvement
